Measured values: patent publication US6914045B2, “Glycopeptide antibiotics” (Wyeth Holdings Corporation, priority 2001, dated 2005)
In brackets after ≈: the same amount, converted by molar mass.

What was measured:
Experiment in all cases: in vitro antibacterial evaluation, MIC by broth dilution
Format in all cases: cell-based
Enterococcus sp. = conditions: broth dilution, 18 hours at 35° C.
How it was run: (§1)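 Broth dilution per NCCLS M7-A2 in Mueller-Hinton II medium, inoculum 5×10^5 CFU/mL, antibiotic range 64-0.06 μg/mL. MIC taken as lowest concentration inhibiting growth; Gram-positive panel includes recent clinical isolates resistant to methicillin, penicillin and/or vancomycin.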

Escherichia coli = conditions: 18 hours at 35° C.
How it was run: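 Step 1: dilute antibiotic across 64-0.06 μg/mL in Muller-Hinton II […]. Step 2: inoculate at 5×10^5 CFU/mL.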

Staphylococcus sp. = conditions: broth dilution, 18 hours at 35° C.
How it was run: as §1

Streptococcus sp. = conditions: broth dilution, 18 hours at 35° C.
How it was run: as §1

SMILES: CC(C)C(=O)OCC1OC(OC2C(CO)OC(Oc3ccc(CC4NC(=O)C(Cc5ccccc5)NC(=O)CNC(=O)C(CO)NC(=O)C(C(O)C5CNC(=N)N5C5OC(CO)C(O)C(O)C5O)NC(=O)C(C(O)C5CNC(=N)N5)NC4=O)cc3)C(O)C2O)C(O)C(O)C1O (centres unmarked) [Example 283a, Cyclo[glycylphenylalanyl-O-[4-O-[6-O-(2-methylpropanoyl)-hexopyranosyl]hexopyranosyl]tyrosyl-3-(2-iminoimidazolidin-4-yl)seryl-3-(3-hexopyranosyl-2-iminoimidazolidin-4-yl)seryliseryl]]
- MIC Enterococcus avium (GC 4558) (Enterococcus sp.; Enterococcus avium (GC 4558)): 128 µg/mL (≈ 94.7 µM)
- MIC Enterococcus faecalis (ATCC 29212) (Enterococcus sp.; Enterococcus faecalis (ATCC 29212)): >128 µg/mL
- MIC Enterococcus faecalis (GC 4553) (Enterococcus sp.; Enterococcus faecalis (GC 4553)): >128 µg/mL
- MIC Enterococcus faecalis (GC 4554) (Enterococcus sp.; Enterococcus faecalis (GC 4554)): >128 µg/mL
- MIC Enterococcus faecalis (GC 6189) (Enterococcus sp.; Enterococcus faecalis (GC 6189)): >128 µg/mL
- MIC Enterococcus faecium (GC 2243) (Enterococcus sp.; Enterococcus faecium (GC 2243)): >128 µg/mL
- MIC Enterococcus faecium (GC 4556) (Enterococcus sp.; Enterococcus faecium (GC 4556)): >128 µg/mL
- MIC Enterococcus faecium (GC 4557) (Enterococcus sp.; Enterococcus faecium (GC 4557)): 64 µg/mL (≈ 47.4 µM)
- MIC Enterococcus faecalis (ATCC 29212) (Enterococcus sp.; strain ATCC 29212): >128 µg/mL
- MIC Enterococcus faecalis (GC 2242) (Enterococcus sp.; strain GC 2242): 128 µg/mL (≈ 94.7 µM)
- MIC Enterococcus faecium (GC 2243) (Enterococcus sp.; strain GC 2243): >128 µg/mL
- MIC Enterococcus faecalis (GC 2691) (Enterococcus sp.; strain GC 2691): >128 µg/mL
- MIC Enterococcus faecalis (GC 3059) (Enterococcus sp.; strain GC 3059): >128 µg/mL
- MIC Enterococcus faecalis (GC 4552) (Enterococcus sp.; strain GC 4552): >128 µg/mL
- MIC Enterococcus faecalis (GC 4553) (Enterococcus sp.; strain GC 4553): >128 µg/mL
- MIC Enterococcus faecalis (GC 4554) (Enterococcus sp.; strain GC 4554): >128 µg/mL
- MIC Enterococcus faecium (GC 4556) (Enterococcus sp.; strain GC 4556): >128 µg/mL
- MIC Enterococcus faecium (GC 4557) (Enterococcus sp.; strain GC 4557): 64 µg/mL (≈ 47.4 µM)
- MIC Enterococcus avium (GC 4558) (Enterococcus sp.; strain GC 4558): 128 µg/mL (≈ 94.7 µM)
- MIC Enterococcus faecalis (GC 6189) (Enterococcus sp.; strain GC 6189): >128 µg/mL
- MIC Escherichia coli (ATCC 25922) (Escherichia coli; Escherichia coli (ATCC 25922)): 128 µg/mL (≈ 94.7 µM)
- MIC Escherichia coli (GC 4559) (Escherichia coli; Escherichia coli (GC 4559)): >128 µg/mL
- MIC Escherichia coli (GC 4560) (Escherichia coli; Escherichia coli (GC 4560)): 32 µg/mL (≈ 23.7 µM)
- MIC Coagulase Negative Staphylococcus (GC 4547) (Staphylococcus sp.): 64 µg/mL (≈ 47.4 µM)
- MIC Coagulase Negative Staphylococcus (GC 4548) (Staphylococcus sp.): 64 µg/mL (≈ 47.4 µM)
- MIC Coagulase Negative Staphylococcus (GC 4549) (Staphylococcus sp.): 32 µg/mL (≈ 23.7 µM)
- MIC Coagulase Negative Staphylococcus (GC 4551) (Staphylococcus sp.): 64 µg/mL (≈ 47.4 µM)
- MIC Staphylococcus aureus (ATCC 29213) (Staphylococcus sp.): 64 µg/mL (≈ 47.4 µM)
- MIC Staphylococcus aureus (GC 1131) (Staphylococcus sp.): 64 µg/mL (≈ 47.4 µM)
- MIC Staphylococcus aureus (GC 3051) (Staphylococcus sp.): 64 µg/mL (≈ 47.4 µM)
- MIC Staphylococcus aureus (GC 3053) (Staphylococcus sp.): 128 µg/mL (≈ 94.7 µM)
- MIC Staphylococcus aureus (GC 4541) (Staphylococcus sp.): 64 µg/mL (≈ 47.4 µM)
- MIC Staphylococcus aureus (GC 4542) (Staphylococcus sp.): 64 µg/mL (≈ 47.4 µM)
- MIC Staphylococcus aureus (GC 4544) (Staphylococcus sp.): 64 µg/mL (≈ 47.4 µM)
- MIC Staphylococcus aureus (GC 4545) (Staphylococcus sp.): 64 µg/mL (≈ 47.4 µM)
- MIC Staphylococcus aureus-SMITH (GC 4543) (Staphylococcus sp.): 64 µg/mL (≈ 47.4 µM)
- MIC Staphylococcus haemolyticus (GC 4546) (Staphylococcus sp.): 64 µg/mL (≈ 47.4 µM)
- MIC Staphylococcus aureus (ATCC 29213) (Staphylococcus sp.; strain ATCC 29213): 64 µg/mL (≈ 47.4 µM)
- MIC Staphylococcus aureus (GC 1131) (Staphylococcus sp.; strain GC 1131): 64 µg/mL (≈ 47.4 µM)
- MIC Staphylococcus aureus (GC 3051) (Staphylococcus sp.; strain GC 3051): 64 µg/mL (≈ 47.4 µM)
- MIC Staphylococcus aureus (GC 3053) (Staphylococcus sp.; strain GC 3053): 128 µg/mL (≈ 94.7 µM)
- MIC Staphylococcus aureus (GC 4541) (Staphylococcus sp.; strain GC 4541): 64 µg/mL (≈ 47.4 µM)
- MIC Staphylococcus aureus (GC 4542) (Staphylococcus sp.; strain GC 4542): 64 µg/mL (≈ 47.4 µM)
- MIC Staphylococcus aureus (GC 4544) (Staphylococcus sp.; strain GC 4544): 64 µg/mL (≈ 47.4 µM)
- MIC Staphylococcus aureus (GC 4545) (Staphylococcus sp.; strain GC 4545): 64 µg/mL (≈ 47.4 µM)
- MIC Staphylococcus haemolyticus (GC 4546) (Staphylococcus sp.; strain GC 4546): 64 µg/mL (≈ 47.4 µM)
- MIC Coagulase Negative Staphylococcus (GC 4547) (Staphylococcus sp.; strain GC 4547): 64 µg/mL (≈ 47.4 µM)
- MIC Coagulase Negative Staphylococcus (GC 4548) (Staphylococcus sp.; strain GC 4548): 64 µg/mL (≈ 47.4 µM)
- MIC Coagulase Negative Staphylococcus (GC 4549) (Staphylococcus sp.; strain GC 4549): 32 µg/mL (≈ 23.7 µM)
- MIC Coagulase Negative Staphylococcus (GC 4551) (Staphylococcus sp.; strain GC 4551): 64 µg/mL (≈ 47.4 µM)
- MIC Staphylococcus aureus-SMITH (GC 4543) (Staphylococcus sp.; strain SMITH GC 4543): 64 µg/mL (≈ 47.4 µM)
- MIC Streptococcus pneumoniae (ATCC 6301) (Streptococcus sp.; strain ATCC 6301): 16 µg/mL (≈ 11.8 µM)
- MIC Streptococcus pneumoniae (GC 1894) (Streptococcus sp.; strain GC 1894): 16 µg/mL (≈ 11.8 µM)
- MIC Streptococcus pyogenes (GC 4563) (Streptococcus sp.; strain GC 4563): 64 µg/mL (≈ 47.4 µM)
- MIC Streptococcus agalactiae (GC 4564) (Streptococcus sp.; strain GC 4564): 64 µg/mL (≈ 47.4 µM)
- MIC Streptococcus pneumoniae (GC 4565) (Streptococcus sp.; strain GC 4565): 16 µg/mL (≈ 11.8 µM)
